Reference: patent US20250270191A1, “QUINOLONE BCL6 BIFUNCTIONAL DEGRADERS” (Treeline Biosciences, Inc., priority 2022, published 2025)

Biological target: T1, Human BCL6 protein (N-terminal HiBiT tagged BCL6 in HT1080 cells) (Homo sapiens, UniProt P41182+Q96SW2)
T1 construct: Human BCL6 protein coding open reading frame; expressed in transfected cells; host or cells: HT1080 (ATCC CCL-121), stably transduced with lentivirus pLV-UBC-N-HiBiT-BCL6-PGK-puro
Experiment: HiBiT based BCL6 degradation assay
Assay type: cell-based
Details: HT1080 cells expressing N-terminal HiBiT tagged BCL6; 5 hours incubation; BCL6 degradation normalized with DMSO control
Procedure, shortened: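 HT1080 cells stably expressing N-terminal HiBiT-BCL6 were treated with compound dilution series for 5 h at 37° C. in RPMI 1640 with 10% FBS. HiBiT lytic luminescence read after 15 min; degradation normalized to DMSO, with curves fitted by four-parameter logistic model.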

Row | Compound | Ymin (5 hr)
1 | CNC(=O)COc1cc2cc(Nc3nc(N4CCCC5(CN(c6ccc7c(C8CCC(=O)NC8=O)nn(C)c7c6)C5)C4)ncc3Cl)ccc2n(C)c1=O (stereo not shown) [Compound 329, 2-((6-((5-chloro-2-(2-(3-(2,6-dioxopiperidin-3-yl)-1-methyl-1H-indazol-6-yl)-2,6-diazaspiro[3.5]nonan-6-yl)pyrimidin-4-yl)amino)-1-methyl-2-oxo-1,2-dihydroquinolin-3-yl)oxy)-N-methylacetamide] | ++ (50% < Ymin ≤ 70%)
2 | CNC(=O)COc1cc2cc(Nc3nc(N4CCCC5(CCCN(c6cccc7c(C8CCC(=O)NC8=O)nn(C)c67)C5)C4)ncc3Cl)ccc2n(C)c1=O (stereo not shown) [Compound 330, 2-((6-((5-chloro-2-(8-(3-(2,6-dioxopiperidin-3-yl)-1-methyl-1H-indazol-7-yl)-2,8-diazaspiro[5.5]undecan-2-yl)pyrimidin-4-yl)amino)-1-methyl-2-oxo-1,2-dihydroquinolin-3-yl)oxy)-N-methylacetamide] | ++ (50% < Ymin ≤ 70%)
3 | CNC(=O)COc1cc2cc(Nc3nc(N4CCCC5(CCN(c6ccc7c(C8CCC(=O)NC8=O)nn(C)c7c6)C5)C4)ncc3Cl)ccc2n(C)c1=O (stereo not shown) [Compound 331, 2-((6-((5-chloro-2-(2-(3-(2,6-dioxopiperidin-3-yl)-1-methyl-1H-indazol-6-yl)-2,7-diazaspiro[4.5]decan-7-yl)pyrimidin-4-yl)amino)-1-methyl-2-oxo-1,2-dihydroquinolin-3-yl)oxy)-N-methylacetamide] | +++ (25% < Ymin ≤ 50%)
4 | CNC(=O)COc1cc2cc(Nc3nc(N4CCC(CC5CCN(c6ccc7c(C8CCC(=O)NC8=O)nn(C)c7c6)C5)CC4)ncc3Cl)ccc2n(C)c1=O (stereo not shown) [Compound 332, 2-((6-((5-chloro-2-(4-((1-(3-(2,6-dioxopiperidin-3-yl)-1-methyl-1H-indazol-6-yl)pyrrolidin-3-yl)methyl)piperidin-1-yl)pyrimidin-4-yl)amino)-1-methyl-2-oxo-1,2-dihydroquinolin-3-yl)oxy)-N-methylacetamide] | +++ (25% < Ymin ≤ 50%)
5 | CNC(=O)COc1cc2cc(Nc3nc(N4CCC(CN5CCN(c6cccc7c(C8CCC(=O)NC8=O)nn(C)c67)CC5)CC4)ncc3Cl)ccc2n(C)c1=O (stereo not shown) [Compound 333, 2-((6-((5-chloro-2-(4-((4-(3-(2,6-dioxopiperidin-3-yl)-1-methyl-1H-indazol-7-yl)piperazin-1-yl)methyl)piperidin-1-yl)pyrimidin-4-yl)amino)-1-methyl-2-oxo-1,2-dihydroquinolin-3-yl)oxy)-N-methylacetamide] | ++++ (Ymin ≤ 25%)
6 | CNC(=O)COc1cc2cc(Nc3nc(N4CCC(CN5CCN(c6ccc7c(C8CCC(=O)NC8=O)nn(C)c7c6)CC5)CC4)ncc3Cl)ccc2n(C)c1=O (stereo not shown) [Compound 334, 2-((6-((5-chloro-2-(4-((4-(3-(2,6-dioxopiperidin-3-yl)-1-methyl-1H-indazol-6-yl)piperazin-1-yl)methyl)piperidin-1-yl)pyrimidin-4-yl)amino)-1-methyl-2-oxo-1,2-dihydroquinolin-3-yl)oxy)-N-methylacetamide] | ++++ (Ymin ≤ 25%)
7 | CNC(=O)COc1cc2cc(Nc3nc(N4CCCC5(CCCN(c6ccc7c(C8CCC(=O)NC8=O)nn(C)c7c6)C5)C4)ncc3Cl)ccc2n(C)c1=O (stereo not shown) [Compound 335, 2-((6-((5-chloro-2-(8-(3-(2,6-dioxopiperidin-3-yl)-1-methyl-1H-indazol-6-yl)-2,8-diazaspiro[5.5]undecan-2-yl)pyrimidin-4-yl)amino)-1-methyl-2-oxo-1,2-dihydroquinolin-3-yl)oxy)-N-methylacetamide] | ++ (50% < Ymin ≤ 70%)
8 | CNC(=O)COc1cc2cc(Nc3nc(N4C[C@@H](C)N(CC5CCN(c6cccc7c(C8CCC(=O)NC8=O)nn(C)c67)CC5)[C@@H](C)C4)ncc3Cl)ccc2n(C)c1=O (stereo partly drawn) [Compound 336a, 2-((6-((5-chloro-2-((3S,5R)-4-((1-(3-(2,6-dioxopiperidin-3-yl)-1-methyl-1H-indazol-7-yl)piperidin-4-yl)methyl)-3,5-dimethylpiperazin-1-yl)pyrimidin-4-yl)amino)-1-methyl-2-oxo-1,2-dihydroquinolin-3-yl)oxy)-N-methylacetamide] | ++++ (Ymin ≤ 25%)
9 | CNC(=O)COc1cc2cc(Nc3nc(N4CCN(C(C)(C)C5CCN(c6cccc7c(C8CCC(=O)NC8=O)nn(C)c67)CC5)CC4)ncc3Cl)ccc2n(C)c1=O (stereo not shown) [Compound 337, 2-((6-((5-chloro-2-(4-(2-(1-(3-(2,6-dioxopiperidin-3-yl)-1-methyl-1H-indazol-7-yl)piperidin-4-yl)propan-2-yl)piperazin-1-yl)pyrimidin-4-yl)amino)-1-methyl-2-oxo-1,2-dihydroquinolin-3-yl)oxy)-N-methylacetamide] | ++++ (Ymin ≤ 25%)
10 | CNC(=O)COc1cc2cc(Nc3nc(N4CC5CCC(Nc6ccc7c(C8CCC(=O)NC8=O)nn(C)c7c6)CC5C4)ncc3Cl)ccc2n(C)c1=O (stereo not shown) [Compound 338, 2-((6-((5-chloro-2-(5-((3-(2,6-dioxopiperidin-3-yl)-1-methyl-1H-indazol-6-yl)amino)octahydro-2H-isoindol-2-yl)pyrimidin-4-yl)amino)-1-methyl-2-oxo-1,2-dihydroquinolin-3-yl)oxy)-N-methylacetamide] | ++ (50% < Ymin ≤ 70%)
11 | CNC(=O)COc1cc2cc(Nc3nc(N4CC5CCC(Nc6cccc7c(C8CCC(=O)NC8=O)nn(C)c67)CC5C4)ncc3Cl)ccc2n(C)c1=O (stereo not shown) [Compound 339, 2-((6-((5-chloro-2-(5-((3-(2,6-dioxopiperidin-3-yl)-1-methyl-1H-indazol-7-yl)amino)octahydro-2H-isoindol-2-yl)pyrimidin-4-yl)amino)-1-methyl-2-oxo-1,2-dihydroquinolin-3-yl)oxy)-N-methylacetamide] | ++ (50% < Ymin ≤ 70%)
12 | CNC(=O)COc1cc2cc(Nc3nc(N4CCN(C(C)(C)C5CCN(c6ccc7c(C8CCC(=O)NC8=O)nn(C)c7c6)CC5)CC4)ncc3Cl)ccc2n(C)c1=O (stereo not shown) [Compound 340, 2-((6-((5-chloro-2-(4-(2-(1-(3-(2,6-dioxopiperidin-3-yl)-1-methyl-1H-indazol-6-yl)piperidin-4-yl)propan-2-yl)piperazin-1-yl)pyrimidin-4-yl)amino)-1-methyl-2-oxo-1,2-dihydroquinolin-3-yl)oxy)-N-methylacetamide] | +++ (25% < Ymin ≤ 50%)
13 | CNC(=O)COc1cc2cc(Nc3nc(N4CC5(CCC(Nc6ccc7c(C8CCC(=O)NC8=O)nn(C)c7c6)CC5)C4)ncc3Cl)ccc2n(C)c1=O (stereo not shown) [Compound 341, 2-((6-((5-chloro-2-(7-((3-(2,6-dioxopiperidin-3-yl)-1-methyl-1H-indazol-6-yl)amino)-2-azaspiro[3.5]nonan-2-yl)pyrimidin-4-yl)amino)-1-methyl-2-oxo-1,2-dihydroquinolin-3-yl)oxy)-N-methylacetamide] | ++++ (Ymin ≤ 25%)
14 | CNC(=O)COc1cc2cc(Nc3nc(N4CC5(CCC(Nc6cccc7c(C8CCC(=O)NC8=O)nn(C)c67)CC5)C4)ncc3Cl)ccc2n(C)c1=O (stereo not shown) [Compound 342, 2-((6-((5-chloro-2-(7-((3-(2,6-dioxopiperidin-3-yl)-1-methyl-1H-indazol-7-yl)amino)-2-azaspiro[3.5]nonan-2-yl)pyrimidin-4-yl)amino)-1-methyl-2-oxo-1,2-dihydroquinolin-3-yl)oxy)-N-methylacetamide] | +++ (25% < Ymin ≤ 50%)
15 | CNC(=O)COc1cc2cc(Nc3nc(N4CCC5(CCC(Nc6ccc7c(C8CCC(=O)NC8=O)nn(C)c7c6)CC5)C4)ncc3Cl)ccc2n(C)c1=O (stereo not shown) [Compound 343, 2-((6-((5-chloro-2-(8-((3-(2,6-dioxopiperidin-3-yl)-1-methyl-1H-indazol-6-yl)amino)-2-azaspiro[4.5]decan-2-yl)pyrimidin-4-yl)amino)-1-methyl-2-oxo-1,2-dihydroquinolin-3-yl)oxy)-N-methylacetamide] | +++ (25% < Ymin ≤ 50%)
16 | CNC(=O)COc1cc2cc(Nc3nc(N4CCC5(CCC(Nc6cccc7c(C8CCC(=O)NC8=O)nn(C)c67)CC5)C4)ncc3Cl)ccc2n(C)c1=O (stereo not shown) [Compound 344, 2-((6-((5-chloro-2-(8-((3-(2,6-dioxopiperidin-3-yl)-1-methyl-1H-indazol-7-yl)amino)-2-azaspiro[4.5]decan-2-yl)pyrimidin-4-yl)amino)-1-methyl-2-oxo-1,2-dihydroquinolin-3-yl)oxy)-N-methylacetamide] | ++ (50% < Ymin ≤ 70%)
17 | CNC(=O)COc1cc2cc(Nc3nc(N4CCN(C(=O)C5CCN(c6cccc7c(C8CCC(=O)NC8=O)nn(C)c67)CC5)CC4)ncc3Cl)ccc2n(C)c1=O (stereo not shown) [Compound 345, 2-((6-((5-chloro-2-(4-(1-(3-(2,6-dioxopiperidin-3-yl)-1-methyl-1H-indazol-7-yl)piperidine-4-carbonyl)piperazin-1-yl)pyrimidin-4-yl)amino)-1-methyl-2-oxo-1,2-dihydroquinolin-3-yl)oxy)-N-methylacetamide] | ++++ (Ymin ≤ 25%)
18 | CNC(=O)COc1cc2cc(Nc3cc(N4CCN(CC5CCN(c6cccc7c(C8CCC(=O)NC8=O)nn(C)c67)CC5)CC4)ncc3Cl)ccc2n(C)c1=O (stereo not shown) [Compound 346, 2-((6-((5-chloro-2-(4-((1-(3-(2,6-dioxopiperidin-3-yl)-1-methyl-1H-indazol-7-yl)piperidin-4-yl)methyl)piperazin-1-yl)pyridin-4-yl)amino)-1-methyl-2-oxo-1,2-dihydroquinolin-3-yl)oxy)-N-methylacetamide] | ++++ (Ymin ≤ 25%)
19 | CC(=O)COc1cc2cc(Nc3nc(N4CCN(CC5CCN(c6cccc7c(C8CCC(=O)NC8=O)nn(C)c67)CC5)[C@@H](C)C4)ncc3Cl)ccc2n(C)c1=O (stereo partly drawn) [Compound 347a, 3-(7-(4-(((S)-4-(5-chloro-4-((1-methyl-2-oxo-3-(2-oxopropoxy)-1,2-dihydroquinolin-6-yl)amino)pyrimidin-2-yl)-2-methylpiperazin-1-yl)methyl)piperidin-1-yl)-1-methyl-1H-indazol-3-yl)piperidine-2,6-dione] | ++++ (Ymin ≤ 25%)
